Columns and labels:
Experiment in all cases: cells
Type in all cases: functional, cell-based, Homo sapiens
NCI-H2347 = conditions: Homo sapiens, NCI-H2347
Description: SANGER: Inhibition of human NCI-H2347 cell growth in a cell viability assay.

5637 = conditions: Homo sapiens
Description: SANGER: Inhibition of human 5637 cell growth in a cell viability assay.

BB30-HNC = conditions: Homo sapiens, BB30-HNC
Description: SANGER: Inhibition of human BB30-HNC cell growth in a cell viability assay.

LB996-RCC = conditions: Homo sapiens, LB996-RCC
Description: SANGER: Inhibition of human LB996-RCC cell growth in a cell viability assay.

CCRF-CEM = conditions: Homo sapiens, CCRF-CEM
Description: SANGER: Inhibition of human CCRF-CEM cell growth in a cell viability assay.

MEL-HO = conditions: Homo sapiens, MEL-HO
Description: SANGER: Inhibition of human MEL-HO cell growth in a cell viability assay.

769-P = conditions: Homo sapiens, 769-P
Description: SANGER: Inhibition of human 769-P cell growth in a cell viability assay.

EFM-19 = conditions: Homo sapiens, EFM-19
Description: SANGER: Inhibition of human EFM-19 cell growth in a cell viability assay.

LAN-6 = conditions: Homo sapiens, LAN-6
Description: SANGER: Inhibition of human LAN-6 cell growth in a cell viability assay.

ECC4 = conditions: Homo sapiens, ECC4
Description: SANGER: Inhibition of human ECC4 cell growth in a cell viability assay.

PANC-08-13 = conditions: Homo sapiens, PANC-08-13
Description: SANGER: Inhibition of human PANC-08-13 cell growth in a cell viability assay.

BOKU = conditions: Homo sapiens, BOKU
Description: SANGER: Inhibition of human BOKU cell growth in a cell viability assay.

SW1990 = conditions: Homo sapiens, SW1990
Description: SANGER: Inhibition of human SW1990 cell growth in a cell viability assay.

T98G = conditions: Homo sapiens, T98G
Description: SANGER: Inhibition of human T98G cell growth in a cell viability assay.

MDA-MB-134-VI = conditions: Homo sapiens, MDA-MB-134-VI
Description: SANGER: Inhibition of human MDA-MB-134-VI cell growth in a cell viability assay.

GCIY = conditions: Homo sapiens, GCIY
Description: SANGER: Inhibition of human GCIY cell growth in a cell viability assay.

LB831-BLC = conditions: Homo sapiens, LB831-BLC
Description: SANGER: Inhibition of human LB831-BLC cell growth in a cell viability assay.

SNU-5 = conditions: Homo sapiens, SNU-5
Description: SANGER: Inhibition of human NCI-SNU-5 cell growth in a cell viability assay.

LK-2 = conditions: Homo sapiens, LK-2
Description: SANGER: Inhibition of human LK-2 cell growth in a cell viability assay.

LOUCY = conditions: Homo sapiens, LOUCY
Description: SANGER: Inhibition of human LOUCY cell growth in a cell viability assay.

J82 = conditions: Homo sapiens, J82
Description: SANGER: Inhibition of human J82 cell growth in a cell viability assay.

OAW-28 = conditions: Homo sapiens, OAW-28
Description: SANGER: Inhibition of human OAW-28 cell growth in a cell viability assay.

SH-4 = conditions: Homo sapiens, SH-4
Description: SANGER: Inhibition of human SH-4 cell growth in a cell viability assay.

TE-15 = conditions: Homo sapiens, TE-15
Description: SANGER: Inhibition of human TE-15 cell growth in a cell viability assay.

NEC8 = conditions: Homo sapiens, NEC8
Description: SANGER: Inhibition of human NEC8 cell growth in a cell viability assay.

SAOS-2 = conditions: Homo sapiens, SAOS-2
Description: SANGER: Inhibition of human Saos-2 cell growth in a cell viability assay.

Huh-7 = conditions: Homo sapiens, Huh-7
Description: SANGER: Inhibition of human HuH-7 cell growth in a cell viability assay.

SW837 = conditions: Homo sapiens, SW837
Description: SANGER: Inhibition of human SW837 cell growth in a cell viability assay.

NCI-H23 = conditions: Homo sapiens, NCI-H23
Description: SANGER: Inhibition of human NCI-H23 cell growth in a cell viability assay.

COLO-320-HSR = conditions: Homo sapiens, COLO-320-HSR
Description: SANGER: Inhibition of human COLO-320-HSR cell growth in a cell viability assay.

LB647-SCLC = conditions: Homo sapiens, LB647-SCLC
Description: SANGER: Inhibition of human LB647-SCLC cell growth in a cell viability assay.

TGBC1TKB = conditions: Homo sapiens, TGBC1TKB
Description: SANGER: Inhibition of human TGBC1TKB cell growth in a cell viability assay.

NB13 = conditions: Homo sapiens, NB13
Description: SANGER: Inhibition of human NB13 cell growth in a cell viability assay.

DK-MG = conditions: Homo sapiens, DK-MG
Description: SANGER: Inhibition of human DK-MG cell growth in a cell viability assay.

EFO-21 = conditions: Homo sapiens, EFO-21
Description: SANGER: Inhibition of human EFO-21 cell growth in a cell viability assay.

SNU-C2B = conditions: Homo sapiens, SNU-C2B
Description: SANGER: Inhibition of human SNU-C2B cell growth in a cell viability assay.

KP-N-YN = conditions: Homo sapiens, KP-N-YN
Description: SANGER: Inhibition of human KP-N-YN cell growth in a cell viability assay.

ESS-1 = conditions: Homo sapiens, ESS-1
Description: SANGER: Inhibition of human ESS-1 cell growth in a cell viability assay.

LXF-289 cell line = conditions: Homo sapiens, LXF-289
Description: SANGER: Inhibition of human LXF-289 cell growth in a cell viability assay.

U-698-M = conditions: Homo sapiens, U-698-M
Description: SANGER: Inhibition of human U-698-M cell growth in a cell viability assay.

NCI-H1155 = conditions: Homo sapiens, NCI-H1155
Description: SANGER: Inhibition of human NCI-H1155 cell growth in a cell viability assay.

MKN-7 = conditions: Homo sapiens, MKN-7
Description: SANGER: Inhibition of human MKN7 cell growth in a cell viability assay.

MKN-45 = conditions: Homo sapiens, MKN-45
Description: SANGER: Inhibition of human MKN45 cell growth in a cell viability assay.

HSC-4 = conditions: Homo sapiens, HSC-4
Description: SANGER: Inhibition of human HSC-4 cell growth in a cell viability assay.

MKN-1 = conditions: Homo sapiens, MKN-1
Description: SANGER: Inhibition of human MKN1 cell growth in a cell viability assay.

## Oc1ccc2ccccc2c1SSc1c(O)ccc2ccccc12
NCI-H2347
  IC50: > 32 µM
5637
  IC50: > 32 µM
BB30-HNC
  IC50: > 32 µM
LB996-RCC
  IC50: > 32 µM
CCRF-CEM
  IC50: 5.98 µM
MEL-HO
  IC50: > 32 µM
769-P
  IC50: > 32 µM
EFM-19
  IC50: 27.3 µM
LAN-6
  IC50: > 32 µM
ECC4
  IC50: > 32 µM
PANC-08-13
  IC50: > 32 µM
BOKU
  IC50: > 32 µM
SW1990
  IC50: > 32 µM
T98G
  IC50: > 32 µM
MDA-MB-134-VI
  IC50: > 32 µM
GCIY
  IC50: > 32 µM
LB831-BLC
  IC50: > 32 µM
SNU-5
  IC50: > 32 µM
LK-2
  IC50: 29.2 µM
LOUCY
  IC50: > 32 µM
J82
  IC50: 7.05 µM
OAW-28
  IC50: > 32 µM
SH-4
  IC50: > 32 µM
TE-15
  IC50: > 32 µM
NEC8
  IC50: > 32 µM
SAOS-2
  IC50: > 32 µM
Huh-7
  IC50: > 32 µM
SW837
  IC50: > 32 µM
NCI-H23
  IC50: > 32 µM
COLO-320-HSR
  IC50: > 32 µM
LB647-SCLC
  IC50: 7.3 µM
TGBC1TKB
  IC50: > 32 µM
NB13
  IC50: 4.23 µM
DK-MG
  IC50: > 32 µM
EFO-21
  IC50: > 32 µM
SNU-C2B
  IC50: > 32 µM
KP-N-YN
  IC50: > 32 µM
ESS-1
  IC50: > 32 µM
LXF-289 cell line
  IC50: > 32 µM
U-698-M
  IC50: 3.24 µM
NCI-H1155
  IC50: > 32 µM
MKN-7
  IC50: > 32 µM
MKN-45
  IC50: > 32 µM
HSC-4
  IC50: > 32 µM
MKN-1
  IC50: > 32 µM

## CCC/C=C/C=C/C(=O)O[C@H]1/C(=C/C(=O)OC)C[C@H]2C[C@H]([C@@H](C)O)OC(=O)C[C@H](O)C[C@@H]3C[C@H](OC(C)=O)C(C)(C)[C@](O)(C[C@@H]4C/C(=C/C(=O)OC)C[C@H](/C=C/C(C)(C)[C@]1(O)O2)O4)O3 [BRYOSTATIN 1]
NCI-H2347
  IC50: > 0.008 µM
5637
  IC50: > 0.008 µM
BB30-HNC
  IC50: > 0.008 µM
LB996-RCC
  IC50: > 0.008 µM
CCRF-CEM
  IC50: > 0.008 µM
MEL-HO
  IC50: > 0.008 µM
769-P
  IC50: > 0.008 µM
EFM-19
  IC50: > 0.008 µM
LAN-6
  IC50: > 0.008 µM
ECC4
  IC50: > 0.008 µM
PANC-08-13
  IC50: > 0.008 µM
BOKU
  IC50: > 0.008 µM
SW1990
  IC50: > 0.008 µM
T98G
  IC50: > 0.008 µM
MDA-MB-134-VI
  IC50: > 0.008 µM
GCIY
  IC50: > 0.008 µM
LB831-BLC
  IC50: > 0.008 µM
SNU-5
  IC50: > 0.008 µM
LK-2
  IC50: > 0.008 µM
LOUCY
  IC50: > 0.008 µM
J82
  IC50: > 0.008 µM
OAW-28
  IC50: > 0.008 µM
SH-4
  IC50: > 0.008 µM
TE-15
  IC50: > 0.008 µM
NEC8
  IC50: > 0.008 µM
SAOS-2
  IC50: > 0.008 µM
Huh-7
  IC50: > 0.008 µM
SW837
  IC50: > 0.008 µM
NCI-H23
  IC50: > 0.008 µM
COLO-320-HSR
  IC50: > 0.008 µM
LB647-SCLC
  IC50: > 0.008 µM
TGBC1TKB
  IC50: > 0.008 µM
NB13
  IC50: > 0.008 µM
DK-MG
  IC50: > 0.008 µM
EFO-21
  IC50: > 0.008 µM
SNU-C2B
  IC50: > 0.008 µM
KP-N-YN
  IC50: > 0.008 µM
ESS-1
  IC50: > 0.008 µM
LXF-289 cell line
  IC50: > 0.008 µM
U-698-M
  IC50: > 0.008 µM
NCI-H1155
  IC50: > 0.008 µM
MKN-7
  IC50: > 0.008 µM
MKN-45
  IC50: > 0.008 µM
HSC-4
  IC50: > 0.008 µM
MKN-1
  IC50: > 0.008 µM

## COc1cccc2c1C(=O)c1c(O)c3c(c(O)c1C2=O)C[C@@](O)(C(=O)CO)C[C@@H]3O[C@H]1C[C@H](N)[C@H](O)[C@H](C)O1 [DOXORUBICIN]
NCI-H2347
  IC50: 0.158 µM
5637
  IC50: 0.0319 µM
BB30-HNC
  IC50: 0.0298 µM
LB996-RCC
  IC50: 0.0785 µM
CCRF-CEM
  IC50: 0.0245 µM
MEL-HO
  IC50: 0.0183 µM
769-P
  IC50: 0.0208 µM
EFM-19
  IC50: 0.478 µM
LAN-6
  IC50: 0.315 µM
ECC4
  IC50: > 1.02 µM
PANC-08-13
  IC50: > 1.02 µM
BOKU
  IC50: 0.111 µM
SW1990
  IC50: 0.202 µM
T98G
  IC50: > 1.02 µM
MDA-MB-134-VI
  IC50: > 1.02 µM
GCIY
  IC50: 0.725 µM
LB831-BLC
  IC50: 0.206 µM
SNU-5
  IC50: 0.57 µM
LK-2
  IC50: 0.581 µM
LOUCY
  IC50: 0.0213 µM
J82
  IC50: 0.0213 µM
OAW-28
  IC50: 0.179 µM
SH-4
  IC50: 0.0921 µM
TE-15
  IC50: 0.0241 µM
NEC8
  IC50: 0.0336 µM
SAOS-2
  IC50: 0.33 µM
Huh-7
  IC50: 0.258 µM
SW837
  IC50: 0.118 µM
NCI-H23
  IC50: 0.284 µM
COLO-320-HSR
  IC50: 0.513 µM
LB647-SCLC
  IC50: 0.123 µM
TGBC1TKB
  IC50: > 1.02 µM
NB13
  IC50: 0.135 µM
DK-MG
  IC50: > 1.02 µM
EFO-21
  IC50: 0.362 µM
SNU-C2B
  IC50: 0.461 µM
KP-N-YN
  IC50: > 1.02 µM
ESS-1
  IC50: 0.0111 µM
LXF-289 cell line
  IC50: 0.109 µM
U-698-M
  IC50: 0.139 µM
NCI-H1155
  IC50: 0.58 µM
MKN-7
  IC50: 0.69 µM
MKN-45
  IC50: 0.0815 µM
HSC-4
  IC50: 0.0758 µM
MKN-1
  IC50: 0.00986 µM

Source: ChEMBL document CHEMBL1201861, “Genomics of Drug Sensitity in Cancer screening data, Wellcome Trust Sanger Institute”
